Measurements as given in patent US9096560B2, “5-heterocyclylalkyl-3-hydroxy-2-phenylcyclopent-2-enones as herbicides” (Syngenta Limited, priority 2008, dated 2015).

Experiments:
Assay type in all cases: in vivo
[1] = tested on: Echinochloa crus-galli (ECHCG); test: Example B post-emergence herbicidal test, ECHCG; settings: Echinochloa crus-galli, 312 h, rate 250 g/ha, evaluated after 13 days, scale 0-100, read-out: Post-emergence activity ECHCG (100=total damage to plant; 0=no damage to plant)
Protocol: (§1) Seeds of a variety of test species were sown in standard soil in pots. After cultivation for one day (pre-emergence) or after 8 days cultivation (post-emergence) under controlled conditions in a glasshouse (at 24/16° C., day/night; 14 hours light; 65% humidity), the plants were sprayed with an aqueous spray solution derived from the formulation of the technical active ingredient in acetone/water (50:50) solution containing 0.5% Tween 20 (polyoxyethelyene sorbitan monolaurate, CAS RN 9005-64-5). The test plants were then grown in a glasshouse under controlled conditions in a glasshouse (at 24/16° C., day/night; 14 hours light; 65% humidity) and watered twice daily. After 13 days for pre and post-emergence, the test was evaluated (100=total damage to plant; 0=no damage to plant). Lolium perenne (LOLPE), Alopecurus myosuroides (ALOMY), Echinochloa crus-galli (ECHCG), Avena fatua (AVEFA) Post-Emergence Activity

Lolium perenne (LOLPE) [2] = test: Example B post-emergence herbicidal test, LOLPE; settings: Lolium perenne, 312 h, rate 250 g/ha, evaluated after 13 days, scale 0-100, read-out: Post-emergence activity LOLPE (100=total damage to plant; 0=no damage to plant)
Protocol: as §1

[3] = tested on: Echinochloa crus-galli (ECHCG); test: Example B pre-emergence herbicidal test, ECHCG; settings: Echinochloa crus-galli, 312 h, rate 250 g/ha, evaluated after 13 days, 100=total damage to plant, 0=no damage to plant
Protocol: as §1, with “Pre-Emergence” for “Post-Emergence”

[4] = tested on: Alopecurus myosuroides (ALOMY); test: Example B post-emergence herbicidal test, ALOMY; settings: Alopecurus myosuroides, 312 h, rate 250 g/ha, evaluated after 13 days, scale 0-100, read-out: Post-emergence activity ALOMY (100=total damage to plant; 0=no damage to plant)
Protocol: as §1

[5] = tested on: Alopecurus myosuroides (ALOMY); test: Example B pre-emergence herbicidal test, ALOMY; settings: Alopecurus myosuroides, 312 h, rate 250 g/ha, evaluated after 13 days, 100=total damage to plant, 0=no damage to plant
Protocol: as §1, with “Pre-Emergence” for “Post-Emergence”

Avena fatua (AVEFA) [6] = test: Example B post-emergence herbicidal test, AVEFA; settings: Avena fatua, 312 h, rate 250 g/ha, evaluated after 13 days, scale 0-100, read-out: Post-emergence activity AVEFA (100=total damage to plant; 0=no damage to plant)
Protocol: as §1

Lolium perenne (LOLPE) [7] = test: Example B pre-emergence herbicidal test, LOLPE; settings: Lolium perenne, 312 h, rate 250 g/ha, evaluated after 13 days, 100=total damage to plant, 0=no damage to plant
Protocol: as §1, with “Pre-Emergence” for “Post-Emergence”

Avena fatua (AVEFA) [8] = test: Example B pre-emergence herbicidal test, AVEFA; settings: Avena fatua, 312 h, rate 250 g/ha, evaluated after 13 days, 100=total damage to plant, 0=no damage to plant
Protocol: as §1, with “Pre-Emergence” for “Post-Emergence”

| Compound | pest or weed control at 250 g/ha [1] [%] | pest or weed control at 250 g/ha (Lolium perenne (LOLPE) [2]) [%] | pest or weed control at 250 g/ha [3] [%] | pest or weed control at 250 g/ha [4] [%] | pest or weed control at 250 g/ha [5] [%] | pest or weed control at 250 g/ha (Avena fatua (AVEFA) [6]) [%] | pest or weed control at 250 g/ha (Lolium perenne (LOLPE) [7]) [%] | pest or weed control at 250 g/ha (Avena fatua (AVEFA) [8]) [%] |
| --- | --- | --- | --- | --- | --- | --- | --- | --- |
| COC(=O)N1CCC(CC2CC(=O)C(c3c(C)cc(C)cc3C)C2=O)C1 (centres unmarked) [Compound T43] | 80 | 100 | 100 | 90 | 80 | 90 | 100 | 100 |
| Cc1cc(C)c(C2C(=O)CC(CC3CCN(C(=O)C(C)C)C3)C2=O)c(C)c1 (centres unmarked) [Compound T142] | 60 | 70 | 90 | 90 | 90 | 90 | 70 | 80 |
| Cc1cc(C)c(C2C(=O)CC(CC3CCN(C(=O)c4cccc(Cl)c4)CC3)C2=O)c(C)c1 (centres unmarked) [Compound T73] | 90 | 80 | 80 | 90 | 40 | 100 | 80 | 80 |
| Cc1cc(C)c(C2C(=O)C/C(=C\C3CCN(C(=O)OC(C)(C)C)CC3)C2=O)c(C)c1 (centres unmarked) [Compound T54] | 80 | 70 | 100 | 80 | 80 | 80 | 100 | 50 |
| CON1CCC(CC2CC(OC(=O)c3ccccc3)=C(c3c(C)cc(C)cc3C)C2=O)CC1 (centres unmarked) [Compound P55] | 100 | 100 | 100 | 90 | 100 | 100 | 100 | 90 |
| Cc1cc(C)c(C2C(=O)CC(CC3CCN(C(=O)C(F)(F)F)C3)C2=O)c(C)c1 (centres unmarked) [Compound T162] | 70 | 90 | 50 | 60 | 40 | 80 | 70 | 50 |
| COc1ccc(C(=O)OC2=C(c3c(C)cc(C)cc3C)C(=O)CC2CC2CCOC2)cc1 (centres unmarked) [Compound P71] | 100 | 100 | 100 | 100 | 90 | 90 | 100 | 100 |
| Cc1cc(C)c(C2C(=O)CC(CC3CCN(C(=O)c4cc(C)nn4C)CC3)C2=O)c(C)c1 (centres unmarked) [Compound T121] | 80 | 90 | 90 | 80 | 30 | 100 | 80 | 60 |
| CC(C)=CC(=O)N1CCC(CC2CC(=O)C(c3c(C)cc(C)cc3C)C2=O)C1 (centres unmarked) [Compound T144] | 80 | 80 | 90 | 80 | 80 | 90 | 70 | 70 |
| Cc1cc(-c2ccc(F)cc2)cc(C)c1C1C(=O)CC(CC2CCOCC2)C1=O (centres unmarked) [Compound T63] | 90 | 90 | 100 | 90 | 70 | 100 | 100 | 90 |
| Cc1cc(C)c(C2C(=O)CC(C(O)C3CCOCC3)C2=O)c(C)c1 (centres unmarked) [Compound T3] | 70 | 70 | 20 | 40 | 50 | 70 | 60 | 50 |
| Cc1cc(C)c(C2C(=O)CC(CC3CCOC3C)C2=O)c(C)c1 (centres unmarked) [Compound T156] | 70 | 100 | 100 | 90 | 80 | 90 | 100 | 70 |
| Cc1cc(C)c(C2C(=O)C(Cc3ccccc3)C(CC3CCOC3)C2=O)c(C)c1 (centres unmarked) [Compound T151] | 40 | 20 | 40 | 30 | 20 | 10 | 30 | 10 |
| CCc1cc(C)cc(C)c1C1C(=O)C/C(=C\C2CCOC2)C1=O (centres unmarked) [Compound T59] | 90 | 100 | 100 | 90 | 90 | 100 | 100 | 90 |
| Cc1cc(C)c(C2C(=O)CC(CC3CCN(C(=O)c4ccc(C(F)(F)F)cc4)CC3)C2=O)c(C)c1 (centres unmarked) [Compound T99] | 90 | 50 | 60 | 70 | 20 | 90 | 60 | 30 |
| Cc1cc(C)c(C2C(=O)CC(CC3CCN(C(=O)C(C)(C)C)C3)C2=O)c(C)c1 (centres unmarked) [Compound T143] | 60 | 60 | 100 | 60 | 80 | 80 | 100 | 50 |
| Cc1cc(C)c(C2C(=O)CC(CC3CCN(C(=O)C(Cl)(Cl)Cl)CC3)C2=O)c(C)c1 (centres unmarked) [Compound T105] | 30 | 50 | 40 | 30 | 20 | 40 | 60 | 30 |
| Cc1cc(C)c(C2C(=O)C/C(=C\C3CCN(S(C)(=O)=O)C3)C2=O)c(C)c1 (centres unmarked) [Compound T31] | 80 | 70 | 80 | 90 | 80 | 90 | 90 | 90 |
| Cc1cc(-c2ccc(F)cc2)cc(C)c1C1C(=O)C/C(=C\C2CCOCC2)C1=O (centres unmarked) [Compound T61] | 100 | 90 | 90 | 90 | 70 | 100 | 90 | 80 |
